The values below are quoted from earlier work in patent publication US6090852A, “Substituted alpha-aminosulphonyl-acetohydroxamic acids as therapeutic agents” (Pfizer Inc, priority 1998, dated 2000).

The test system of this series is human ovarian carcinoma xenografts. The settings on record: mice carrying human ovarian carcinoma xenografts; Cancer Res., 1993, 53, 2087. Background: A xenograft is tissue or cells of one species grown in another, often human tumour cells in immunodeficient mice.

The structures appear in SMILES notation.

Regarding `CNC(=O)[C@H](Cc1ccccc1)NC(=O)[C@H](CC(C)C)[C@H](CSc1cccs1)C(=O)NO` [BB-94], the survival result was “prolong the survival” and the tumour burden result is reported as “decrease the tumour burden”.
